Where two headings read alike, the source gives them in different places.

Assay [1] addresses TLR1/TLR2 (Mus musculus, UniProt Q9EPQ1+Q9QUN7). Briefly: TNF-α release from thioglycolate-elicited mouse peritoneal macrophages (ELISA). The note with it: for Emax: 4 h, read-out: Efficacy (magnitude) of response versus diprovocim-1 (100%), mouse macrophages. On the technique in general: An ELISA detects its analyte on a solid surface through an enzyme-linked reagent.
The target of assay [2] is TLR1/TLR2 (Homo sapiens, UniProt O60603+Q15399). Briefly: TNF-α release from PMA-differentiated human THP-1 cells (ELISA).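 For all read-outs here: cells exposed to graded compound concentrations for 4 h, TNF-α quantified in supernatant, LPS as positive and DMSO as negative control, values are duplicate means.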 To be noted: for Emax: THP-1, 4 h, read-out: Efficacy (magnitude) of response versus diprovocim-1 (100%), THP-1.
Procedure: THP-1 (American Type Culture Collection) cells, a human monocytic leukemia cell line, were differentiated by treatment with 100 nM PMA (Sigma) in Roswell Park Memorial Institute (RPMI) cell culture medium [RPMI containing 10% vol/vol FBS (Gemini Bio Products), 1% penicillin and streptomycin (Life Technologies)] for 24 h. After that, the cells were washed with PBS and cultured in fresh RPMI cell culture medium for 24 h before use in studies. PMA-differentiated THP-1 cells were seeded onto 96-well plates at 0.5×10^5 cells per well and treated with systematically varied concentrations of the candidate compounds (dissolved in DMSO, and the final assay DMSO concentration (0.1%) was kept constant in all experiments) for 4 h. Ultra-pure LPS (dissolved in H2O, Enzo Life Sciences) was assessed alongside the compounds as a positive control and DMSO treated control was used as a negative control. Human TNF-α in the supernatants was measured by ELISA (eBioscience). This assay was used for establishing dose-response curves and measured EC50's. EC50's were calculated by Graphpad Prism. All data is the mean of duplicates and SD is within +10% of mean.
Where [3] appears, read: read-out: EC50 (nM) (mouse): EC50 TNF-α release from mouse macrophages, Table 1.
The mark [4] stands for this setting: read-out: EC50 (nM) (THP-1): EC50 TNF-α release from human THP-1 cells, Table 1.
The mark [5] stands for this setting: read-out: EC50 (nM) (mouse): EC50 TNF-α release from mouse macrophages, Table 6.
[6] abbreviates: read-out: EC50 (nM) (THP-1): EC50 TNF-α release from human THP-1 cells, Table 6.
Where [7] appears, read: read-out: EC50 (nM) (mouse): EC50 TNF-α release from mouse macrophages, Table 3.
Setting [8] is: read-out: EC50 (nM) (THP-1): EC50 TNF-α release from human THP-1 cells, Table 3.

TLR1/TLR2 (Mus musculus, UniProt Q9EPQ1+Q9QUN7), sequence (Q9EPQ1 26-795): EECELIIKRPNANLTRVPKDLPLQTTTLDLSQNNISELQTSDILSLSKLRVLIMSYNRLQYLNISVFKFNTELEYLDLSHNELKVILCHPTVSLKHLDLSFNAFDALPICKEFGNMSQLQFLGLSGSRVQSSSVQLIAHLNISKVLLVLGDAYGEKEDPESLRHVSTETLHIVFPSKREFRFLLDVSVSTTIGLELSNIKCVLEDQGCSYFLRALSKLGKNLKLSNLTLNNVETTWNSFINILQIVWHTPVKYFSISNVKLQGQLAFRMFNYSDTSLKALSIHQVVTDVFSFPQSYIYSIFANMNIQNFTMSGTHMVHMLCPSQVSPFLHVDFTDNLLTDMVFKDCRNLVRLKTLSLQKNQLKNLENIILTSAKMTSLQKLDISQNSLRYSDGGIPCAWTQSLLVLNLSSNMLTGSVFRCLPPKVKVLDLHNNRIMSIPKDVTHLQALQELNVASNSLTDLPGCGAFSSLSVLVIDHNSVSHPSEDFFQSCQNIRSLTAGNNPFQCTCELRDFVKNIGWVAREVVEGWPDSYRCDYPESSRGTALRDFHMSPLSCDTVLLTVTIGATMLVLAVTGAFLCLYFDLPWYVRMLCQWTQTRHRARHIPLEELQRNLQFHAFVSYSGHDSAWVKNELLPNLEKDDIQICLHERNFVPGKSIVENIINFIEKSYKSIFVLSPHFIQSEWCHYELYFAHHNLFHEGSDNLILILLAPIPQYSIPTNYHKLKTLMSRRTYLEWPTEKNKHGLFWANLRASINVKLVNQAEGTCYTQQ
TLR1/TLR2 (Mus musculus, UniProt Q9EPQ1+Q9QUN7), sequence (Q9QUN7 25-784): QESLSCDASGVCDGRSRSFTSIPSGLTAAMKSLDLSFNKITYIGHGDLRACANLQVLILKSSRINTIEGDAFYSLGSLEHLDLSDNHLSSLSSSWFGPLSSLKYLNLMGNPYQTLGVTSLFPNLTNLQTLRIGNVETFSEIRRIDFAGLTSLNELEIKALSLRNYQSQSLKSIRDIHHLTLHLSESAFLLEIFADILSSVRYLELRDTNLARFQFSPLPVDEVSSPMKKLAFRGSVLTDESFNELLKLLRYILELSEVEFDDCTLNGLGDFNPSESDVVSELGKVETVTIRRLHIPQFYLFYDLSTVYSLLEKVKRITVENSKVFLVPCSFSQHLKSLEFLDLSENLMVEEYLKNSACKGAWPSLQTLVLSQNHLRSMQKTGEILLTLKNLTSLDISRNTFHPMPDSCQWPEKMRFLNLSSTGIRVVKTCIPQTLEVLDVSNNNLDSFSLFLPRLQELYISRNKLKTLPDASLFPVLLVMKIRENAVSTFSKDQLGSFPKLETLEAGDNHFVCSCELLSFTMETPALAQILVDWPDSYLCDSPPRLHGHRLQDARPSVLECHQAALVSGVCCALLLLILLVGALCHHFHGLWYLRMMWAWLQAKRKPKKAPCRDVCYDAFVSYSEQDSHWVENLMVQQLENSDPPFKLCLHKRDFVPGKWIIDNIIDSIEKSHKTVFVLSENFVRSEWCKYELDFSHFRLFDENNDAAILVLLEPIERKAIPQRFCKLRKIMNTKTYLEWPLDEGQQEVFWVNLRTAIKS
TLR1/TLR2 (Homo sapiens, UniProt O60603+Q15399), sequence (Q15399 25-786): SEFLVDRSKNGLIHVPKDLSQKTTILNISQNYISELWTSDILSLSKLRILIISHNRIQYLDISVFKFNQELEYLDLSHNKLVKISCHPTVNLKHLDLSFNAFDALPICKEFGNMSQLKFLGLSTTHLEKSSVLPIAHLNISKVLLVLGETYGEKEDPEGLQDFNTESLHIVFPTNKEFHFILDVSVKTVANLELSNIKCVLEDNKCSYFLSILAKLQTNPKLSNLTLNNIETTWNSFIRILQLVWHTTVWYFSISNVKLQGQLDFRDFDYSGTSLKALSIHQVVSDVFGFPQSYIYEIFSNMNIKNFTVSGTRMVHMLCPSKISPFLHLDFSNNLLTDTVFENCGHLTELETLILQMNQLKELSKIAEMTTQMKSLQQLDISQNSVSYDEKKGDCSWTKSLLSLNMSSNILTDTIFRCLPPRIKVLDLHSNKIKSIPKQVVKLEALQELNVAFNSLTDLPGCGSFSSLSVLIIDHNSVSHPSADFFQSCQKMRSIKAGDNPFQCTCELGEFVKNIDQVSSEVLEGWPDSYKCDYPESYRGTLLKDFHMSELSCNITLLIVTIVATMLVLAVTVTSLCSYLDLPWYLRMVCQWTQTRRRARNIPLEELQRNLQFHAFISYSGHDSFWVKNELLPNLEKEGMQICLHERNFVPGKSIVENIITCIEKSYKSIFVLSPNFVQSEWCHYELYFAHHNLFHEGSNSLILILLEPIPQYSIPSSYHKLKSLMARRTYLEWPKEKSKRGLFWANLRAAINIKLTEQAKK
TLR1/TLR2 (Homo sapiens, UniProt O60603+Q15399), sequence (O60603 21-784): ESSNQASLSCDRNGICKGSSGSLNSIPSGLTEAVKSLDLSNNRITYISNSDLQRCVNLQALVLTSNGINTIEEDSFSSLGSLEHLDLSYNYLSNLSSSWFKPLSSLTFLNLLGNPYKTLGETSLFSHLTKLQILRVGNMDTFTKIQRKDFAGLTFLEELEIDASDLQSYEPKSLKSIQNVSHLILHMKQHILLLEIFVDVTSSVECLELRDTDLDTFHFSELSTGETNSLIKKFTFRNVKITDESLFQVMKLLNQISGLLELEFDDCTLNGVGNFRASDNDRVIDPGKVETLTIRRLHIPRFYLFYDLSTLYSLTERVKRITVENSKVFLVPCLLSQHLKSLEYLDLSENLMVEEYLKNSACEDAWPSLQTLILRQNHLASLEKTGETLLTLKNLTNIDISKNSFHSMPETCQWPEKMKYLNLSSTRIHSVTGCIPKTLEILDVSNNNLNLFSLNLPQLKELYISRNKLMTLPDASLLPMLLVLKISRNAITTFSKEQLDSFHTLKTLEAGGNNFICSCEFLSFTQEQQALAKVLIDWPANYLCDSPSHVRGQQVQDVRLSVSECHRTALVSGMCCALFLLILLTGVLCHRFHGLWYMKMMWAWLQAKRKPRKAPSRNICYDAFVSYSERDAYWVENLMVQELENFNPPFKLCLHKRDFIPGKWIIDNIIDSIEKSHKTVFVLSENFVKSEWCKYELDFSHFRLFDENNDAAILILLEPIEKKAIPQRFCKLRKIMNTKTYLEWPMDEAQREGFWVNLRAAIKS

Broadly, the EC50 is the concentration needed to bring the measured effect to its halfway point. For `NCCCCCCCCCCCCNC(=O)[C@@H]1CN(C(=O)c2ccc(C(=O)N3C[C@@H](C(=O)N[C@H]4C[C@@H]4c4ccccc4)[C@H](C(=O)N[C@H]4C[C@@H]4c4ccccc4)C3)cc2)C[C@H]1C(=O)N[C@H]1C[C@@H]1c1ccccc1` [Compound 16, (3S,4S)—N^3-(12-Aminododecyl)-1-(4-((3S,4S)-3,4-bis-(((1S,2R)-2-phenylcyclopropyl)carbamoyl)-pyrrolidine-1-carbonyl)benzoyl)-N^4-((1S,2R)-2-phenylcyclopropyl)-pyrrolidine-3,4-dicarboxamide], the Emax came out at 130% in assay [1] and 140% in assay [2]. Further, the EC50 turned out to be 10 nM in assay [1] (setting [3]) and 0.8 nM in assay [2] (setting [4]).
Turning to `O=C(NCCCCCCO)[C@@H]1CN(C(=O)c2ccc(C(=O)N3C[C@@H](C(=O)N[C@H]4C[C@@H]4c4ccccc4)[C@H](C(=O)N[C@H]4C[C@@H]4c4ccccc4)C3)cc2)C[C@H]1C(=O)N[C@H]1C[C@@H]1c1ccccc1` [Compound 10, (3S,4S)-1-(4-((3S,4S)-3,4-Bis(((1S,2R)-2-phenyl-cyclo-propyl)carbamoyl)pyrrolidine-1-carbonyl)-benzoyl)-N^3-(6-hydroxyhexyl)-N^4-((1S,2R)-2-phenyl-cyclopropyl)-pyrrolidine-3,4-dicarboxamide], the EC50 in assay [1] (setting [3]) was found to be 180 nM; in assay [2] (setting [4]) it was 90 nM.
Take `CC(C)(C)OC(=O)c1ccc(C(=O)NCC(=O)OCCCCCCCCCCCCNC(=O)[C@@H]2CN(C(=O)c3ccc(C(=O)N4C[C@@H](C(=O)N[C@H]5C[C@@H]5c5ccccc5)[C@H](C(=O)N[C@H]5C[C@@H]5c5ccccc5)C4)cc3)C[C@H]2C(=O)N[C@H]2C[C@@H]2c2ccccc2)cc1` [Compound 79, tert-Butyl 4-((2-((12-((3S,4S)-1-(4-((3S,4S)-3,4-bis-(((1S,2R)-2-phenylcyclopropyl)carbamoyl)-pyrrolidine-1-carbonyl)benzoyl)-4-(((1S,2R)-2-phenylcyclopropyl)-carbamoyl)pyrrolidine-3-carboxamido)dodecyl)oxy)-2-oxoethyl)carbamoyl)benzoate]: the Emax was determined as 130% in assay [1] and 100% in assay [2]. For the same molecule, the EC50 worked out at 465 nM in assay [1] (setting [5]) and 6.6 nM in assay [2] (setting [6]).
On to `O=C(NCCCCCCCCO)[C@@H]1CN(C(=O)c2ccc(C(=O)N3C[C@@H](C(=O)N[C@H]4C[C@@H]4c4ccccc4)[C@H](C(=O)N[C@H]4C[C@@H]4c4ccccc4)C3)cc2)C[C@H]1C(=O)N[C@H]1C[C@@H]1c1ccccc1` [Compound 9, (3S,4S)-1-(4-((3S,4S)-3,4-Bis(((1S,2R)-2-phenyl-cyclopropyl)carbamoyl)pyrrolidine-1-carbonyl)-benzoyl)-N^3—(8-hydroxyoctyl)-N^4-((1S,2R)-2-phenyl-cyclopropyl)pyrrolidine-3,4-dicarboxamide], for which the results for the EC50 in assay [1] (setting [3]) and in assay [2] (setting [4]) were 93 nM and 4.3 nM, respectively.
In the case of `CC(C)(C)C(=O)NCC(=O)OCCCCCCCCCCCCNC(=O)[C@@H]1CN(C(=O)c2ccc(C(=O)N3C[C@@H](C(=O)N[C@H]4C[C@@H]4c4ccccc4)[C@H](C(=O)N[C@H]4C[C@@H]4c4ccccc4)C3)cc2)C[C@H]1C(=O)N[C@H]1C[C@@H]1c1ccccc1` [Compound 42, 12-((3S,4S)-1-(4-((3S,4S)-3,4-Bis(((1S,2R)-2-phenylcyclopropyl)carbamoyl)pyrrolidine-1-carbonyl)benzoyl)-4-(((1S,2R)-2-phenylcyclopropyl)carbamoyl)pyrrolidine-3-carboxamido)-dodecyl 2-pivalamidoacetate], the Emax in assay [1] and in assay [2] was 110% throughout. Moreover, the EC50 in assay [1] (setting [7]) turned out to be 6.2 nM; in assay [2] (setting [8]), 1.8 nM.
On to `O=C(CNC(=O)OCC(Cl)(Cl)Cl)OCCCCCCCCCCCCNC(=O)[C@@H]1CN(C(=O)c2ccc(C(=O)N3C[C@@H](C(=O)N[C@H]4C[C@@H]4c4ccccc4)[C@H](C(=O)N[C@H]4C[C@@H]4c4ccccc4)C3)cc2)C[C@H]1C(=O)N[C@H]1C[C@@H]1c1ccccc1` [Compound 37, 12-((3S,4S)-1-(4-((3S,4S)-3,4-Bis(((1S,2R)-2-phenyl-cyclopropyl)carbamoyl)pyrrolidine-1-carbonyl)benzoyl)-4-(((1S,2R)-2-phenylcyclopropyl)carbamoyl)pyrrolidine-3-carboxamido)-dodecyl 2-(((2,2,2-trichloroethoxy)-carbonyl)amino)acetate], for which the Emax is 300% in assay [1] and 100% in assay [2]. For the same molecule, the figures for the EC50 in assay [1] (setting [7]) and in assay [2] (setting [8]) were 3.4 nM and 0.27 nM, respectively.
As for `[N-]=[N+]=NCCCCCCCCCCCCNC(=O)[C@@H]1CN(C(=O)c2ccc(C(=O)N3C[C@@H](C(=O)N[C@H]4C[C@@H]4c4ccccc4)[C@H](C(=O)N[C@H]4C[C@@H]4c4ccccc4)C3)cc2)C[C@H]1C(=O)N[C@H]1C[C@@H]1c1ccccc1` [Compound 20, (3S,4S)—N^3-(12-Azidododecyl)-1-(4-((3S,4S)-3,4-bis-(((1S,2R)-2-phenylcyclopropyl)carbamoyl)-pyrrolidine-1-carbonyl)benzoyl)-N^4-((1S,2R)-2-phenylcyclopropyl)-pyrrolidine-3,4-dicarboxamide], the Emax in assay [1] amounted to 50%; in assay [2], 30%. In addition, the values for the EC50 in assay [1] (setting [3]) and in assay [2] (setting [4]) were 0.6 nM and 0.07 nM, respectively.
On to `O=C(COCc1ccccc1)OCCCCCCCCCCCCNC(=O)[C@@H]1CN(C(=O)c2ccc(C(=O)N3C[C@@H](C(=O)N[C@H]4C[C@@H]4c4ccccc4)[C@H](C(=O)N[C@H]4C[C@@H]4c4ccccc4)C3)cc2)C[C@H]1C(=O)N[C@H]1C[C@@H]1c1ccccc1` [Compound 46, 12-((3S,4S)-1-(4-((3S,4S)-3,4-Bis(((1S,2R)-2-phenylcyclopropyl)carbamoyl)pyrrolidine-1-carbonyl)benzoyl)-4-(((1S,2R)-2-phenylcyclopropyl)-carbamoyl)pyrrolidine-3-carboxamido)-dodecyl 2-(benzyloxy)acetate], for which the EC50 in assay [1] was 0.7 to 5 nM; in assay [1] (setting [7]), 5.3 nM; in assay [2], 0.05 to 0.2 nM; in assay [2] (setting [8]) it was 0.06 nM. Besides, the Emax in assay [1] worked out at 220%; in assay [2], 130%.
For the molecule `O=C(CNC(=O)C(=O)O)OCCCCCCCCCCCCNC(=O)[C@@H]1CN(C(=O)c2ccc(C(=O)N3C[C@@H](C(=O)N[C@H]4C[C@@H]4c4ccccc4)[C@H](C(=O)N[C@H]4C[C@@H]4c4ccccc4)C3)cc2)C[C@H]1C(=O)N[C@H]1C[C@@H]1c1ccccc1` [Compound 84, 2-((2-((12-((3S,4S)-1-(4-((3S,4S)-3,4-Bis(((1S,2R)-2-phenylcyclopropyl)carbamoyl)pyrrolidine-1-carbonyl)benzoyl)-4-(((1S,2R)-2-phenylcyclopropyl)carbamoyl)pyrrolidine-3-carboxamido)-dodecyl)oxy)-2-oxoethyl)amino)-2-oxoacetic acid], the Emax in assay [1] was determined as 250%; in assay [2] it was 120%. In addition, the EC50 was 6.7 nM in assay [1] (setting [5]) and 0.23 nM in assay [2] (setting [6]).
For the molecule `O=C(NCCc1ccc(F)cc1)[C@@H]1CN(C(=O)c2ccc(C(=O)N3C[C@@H](C(=O)N[C@H]4C[C@@H]4c4ccccc4)[C@H](C(=O)N[C@H]4C[C@@H]4c4ccccc4)C3)cc2)C[C@H]1C(=O)N[C@H]1C[C@@H]1c1ccccc1` [Compound 25, (3S,4S)-1-(4-((3S,4S)-3,4-Bis(((1S,2R)-2-phenylcyclo-propyl)carbamoyl)pyrrolidine-1-carbonyl)-benzoyl)-N^3-(4-fluorophenethyl)-N^4-((1S,2R)-2-phenylcyclopropyl)-pyrrolidine-3,4-dicarboxamide], the EC50 in assay [1] (setting [3]) was determined as 1 nM; in assay [2] (setting [4]), 0.5 nM.
`O=C(CNC(=O)OCc1ccccc1)OCCCCCCCCCCCCNC(=O)[C@@H]1CN(C(=O)c2ccc(C(=O)N3C[C@@H](C(=O)N[C@H]4C[C@@H]4c4ccccc4)[C@H](C(=O)N[C@H]4C[C@@H]4c4ccccc4)C3)cc2)C[C@H]1C(=O)N[C@H]1C[C@@H]1c1ccccc1` [Compound 36, 12-((3S,4S)-1-(4-((3S,4S)-3,4-Bis(((1S,2R)-2-phenyl-cyclopropyl)carbamoyl)pyrrolidine-1-carbonyl)-benzoyl)-4-(((1S,2R)-2-phenylcyclopropyl)carbamoyl)-pyrrolidine-3-carboxamido)-dodecyl 2-(((benzyloxy)carbonyl)-amino)acetate]: the values for the Emax in assay [1] and in assay [2] were 410% and 100%, respectively. The EC50 in assay [1] (setting [7]) stood at 40 nM; in assay [2] (setting [8]) it was 0.1 nM.
In the case of `NCC(=O)OCCCCCCCCCCCCNC(=O)[C@@H]1CN(C(=O)c2ccc(C(=O)N3C[C@@H](C(=O)N[C@H]4C[C@@H]4c4ccccc4)[C@H](C(=O)N[C@H]4C[C@@H]4c4ccccc4)C3)cc2)C[C@H]1C(=O)N[C@H]1C[C@@H]1c1ccccc1` [Compound 43, 12-((3S,4S)-1-(4-((3S,4S)-3,4-Bis(((1S,2R)-2-phenylcyclopropyl)carbamoyl)pyrrolidine-1-carbonyl)benzoyl)-4-(((1S,2R)-2-phenylcyclopropyl)carbamoyl)pyrrolidine-3-carboxamido)dodecyl glycinate], the EC50 in assay [1] is 0.7 to 5 nM; in assay [1] (setting [7]), 0.75 nM; in assay [2], 0.05 to 0.2 nM; in assay [2] (setting [8]) it was 0.07 nM. The Emax in assay [1] and in assay [2] was 100% in each case.

The values above are taken from patent US20250367166A1, “NEXT GENERATION DIPROVOCIMS THAT ACTIVATE THE INNATE AND ADAPTIVE IMMUNE RESPONSE” (The Scripps Research Institute, priority 2022, published 2025).
